The numbers were not newly measured in publication PMC10628858, “Investigation of new ferrocenyl-artesunate derivatives as antiparasitics” (Dalton Transactions (Cambridge, England : 2003), 2023), which cites them from elsewhere.

This series deals with P. falciparum 3D7 (chloroquine sensitive). Set-up: method as in doi:10.1016/j.jorganchem.2023.122633. To be noted: chloroquine sensitive strain; cited from earlier work.

`CC1CCC2C(C)C(OC(=O)CCC(=O)NC[c-]3cccc3)OC3OC4(C)CCC1C32OO4.[Fe+2].c1cc[cH-]c1` (stereo not shown) [Compound C4]: the “Activity against P. falciparum 3D7” value is recorded as 6.1 nM.
